Test results as given in EP4778922A1, “BICYCLIC COMPOUND, AND PREPARATION METHOD THEREFOR AND PHARMACEUTICAL USE THEREOF” (Shanghai Jeyou Pharmaceutical Co., Ltd., priority 2023, dated 2025).

Assays:
[1] = test system: 22RV1 cells; experiment: Cell proliferation inhibition assay in 22RV1 cells (CellTiter-Glo, 7 days); type: cell-based, human; settings: Homo sapiens, 22Rv1, 168 h
Protocol: • 1. The human prostate cancer cell lines 22RV1 and LNCaP were purchased from ATCC. […] The cell concentration was adjusted to an appropriate concentration (determined based on the results of cell density optimization experiments), and the cells were seeded into a 96-well plate. A 100 µL cell suspension was added, resulting in 3000 cells per well. […] On the second day, for 22Rv1 cells, test compounds at different concentrations were added, and the cells were incubated at 37°C in a 5% CO2 incubator for 7 days; for LNCaP cells, test compounds at different concentrations were added first, and after 1 hour of treatment, 0.2 nM DHT was added. The cells were then incubated at 37°C in a 5% CO2 incubator for 7 days. • 4. After the incubation period, a volume of CellTiter-Glo detection reagent equal to the volume of the culture medium was added to each well. The plate was shaken and mixed thoroughly for 5 minutes, then incubated at room temperature for 10 minutes. Readings were taken using a PerkinElmer EnVision microplate reader. • 5.
The IC50 curve was fitted and the IC50 value was calculated using the software GraphPad Prism 8 with the calculation formula XY-analysis/Nonlinear regression (curve fit)/Dose response-Inhibition/log (inhibitor) vs. response-Variable slope (four parameters).

[2] = Mouse pharmacokinetic test; type: in vivo, ICR mice; settings: plasma; for Tmax: read-out: Tmax
Protocol: Formulation preparation: The dosing solutions were prepared on the day of administration.
Six healthy male naive ICR mice weighing 25-30 g were selected and divided into two groups (intravenous and oral groups), with three mice in each group, and administered a single dose. […] Feeding was resumed 4 h after administration. Timing was initiated following intravenous and oral administration. […] The collected whole blood was briefly vortexed twice for mixing, placed on wet ice, and centrifuged at 4°C and 8000 rpm for 5 min within 1 h. The supernatant plasma was collected and stored at -80°C until processing and analysis. Table 3: Pharmacokinetics in mice

CC(C)(c1ccc(-c2ccc(OCc3ccnc(N4CC(S(C)(=N)=O)C4)n3)cn2)cc1)c1cc(Cl)c(OCCCl)c(C#N)c1 (racemic) [Compound 242]
IC50 [1]: 490 nM | AUC(0-inf) ([2]; po, 30 mg/kg, PO-30mpk): 607 µg·h/mL | Cmax ([2]; po, 30 mg/kg, PO-30mpk): 78000 ng/mL | half-life ([2]; po, 30 mg/kg, PO-30mpk): 4.4 h | Tmax ([2]; po, 30 mg/kg, PO-30mpk): 4 h

CC(C)(c1ccc(-c2ccc(OCc3ccnc(N=S4(=O)CCCC4)n3)cn2)cc1)c1cc(Cl)c(OCCCl)c(C#N)c1 [Compound 16]
IC50 [1]: 940 nM | AUC(0-inf) ([2]; po, 30 mg/kg, PO-30mpk): 211 µg·h/mL | Cmax ([2]; po, 30 mg/kg, PO-30mpk): 36100 ng/mL | half-life ([2]; po, 30 mg/kg, PO-30mpk): 1.46 h | Tmax ([2]; po, 30 mg/kg, PO-30mpk): 1.67 h

CC(C)(c1ccc(-c2ccc(OCc3ccnc(P(C)(C)=O)n3)nc2)cc1)c1cc(Cl)c(OCCCl)c(C#N)c1 [Compound 17]
IC50 [1]: 960 nM | C0 ([2]; 0.5 mg/kg, IV-0.5mpk): 982 ng/mL | clearance ([2]; 0.5 mg/kg, IV-0.5mpk): 1.1 mL/min/kg | bioavailability ([2]; 30 mg/kg, PO-30mpk vs IV-0.5mpk): 92.2% | AUC(0-inf) ([2]; iv, 0.5 mg/kg, IV-0.5mpk): 7.59 µg·h/mL | half-life ([2]; iv, 0.5 mg/kg, IV-0.5mpk): 5.6 h | AUC(0-inf) ([2]; po, 30 mg/kg, PO-30mpk): 420 µg·h/mL | Cmax ([2]; po, 30 mg/kg, PO-30mpk): 35700 ng/mL | half-life ([2]; po, 30 mg/kg, PO-30mpk): 5.82 h | Tmax ([2]; po, 30 mg/kg, PO-30mpk): 4.67 h

CC(C)(c1ccc(-c2ccc(Oc3ccnc(P(C)(C)=O)n3)cc2)cc1)c1cc(Cl)c(OCCCl)c(C#N)c1 [Compound 26]
IC50 [1]: 1420 nM | AUC(0-inf) ([2]; po, 30 mg/kg, PO-30mpk): 368 µg·h/mL | Cmax ([2]; po, 30 mg/kg, PO-30mpk): 29500 ng/mL | half-life ([2]; po, 30 mg/kg, PO-30mpk): 7.81 h | Tmax ([2]; po, 30 mg/kg, PO-30mpk): 3.33 h

CC(C)(c1ccc(-c2ccc(OCc3ccnc(N=S(C)(C)=O)n3)cc2)cc1)c1cc(Cl)c(OCCCl)c(C#N)c1 [Compound 44]
IC50 [1]: 940 nM | AUC(0-inf) ([2]; po, 30 mg/kg, PO-30mpk): 219 µg·h/mL | Cmax ([2]; po, 30 mg/kg, PO-30mpk): 11700 ng/mL | half-life ([2]; po, 30 mg/kg, PO-30mpk): 9.35 h | Tmax ([2]; po, 30 mg/kg, PO-30mpk): 4.67 h

CC(C)(c1ccc(-c2ccc(OCC3CN(c4ccnc(P(C)(C)=O)n4)C3)cc2)cc1)c1cc(Cl)c(OCCCl)c(C#N)c1 [Compound 70]
IC50 [1]: 500 nM | AUC(0-inf) ([2]; po, 30 mg/kg, PO-30mpk): 187 µg·h/mL | Cmax ([2]; po, 30 mg/kg, PO-30mpk): 14700 ng/mL | half-life ([2]; po, 30 mg/kg, PO-30mpk): 5.13 h | Tmax ([2]; po, 30 mg/kg, PO-30mpk): 4 h

CC(C)(c1ccc(-c2ccc(OCc3ccnc(N4CC5(COC5)C4)n3)cn2)cc1)c1cc(Cl)c(OCCCl)c(C#N)c1 [Compound 82]
IC50 [1]: 860 nM | AUC(0-inf) ([2]; po, 30 mg/kg, PO-30mpk): 171 µg·h/mL | Cmax ([2]; po, 30 mg/kg, PO-30mpk): 24900 ng/mL | half-life ([2]; po, 30 mg/kg, PO-30mpk): 8.3 h | Tmax ([2]; po, 30 mg/kg, PO-30mpk): 2.7 h

CC(C)(c1ccc(-c2ccc(OC3CCN(c4ccnc(P(C)(C)=O)n4)CC3)nc2)cc1)c1cc(Cl)c(OCCCl)c(C#N)c1 [Compound 103]
IC50 [1]: 690 nM | AUC(0-inf) ([2]; po, 30 mg/kg, PO-30mpk): 247 µg·h/mL | Cmax ([2]; po, 30 mg/kg, PO-30mpk): 18100 ng/mL | half-life ([2]; po, 30 mg/kg, PO-30mpk): 7.5 h | Tmax ([2]; po, 30 mg/kg, PO-30mpk): 4 h

CC(C)(c1ccc(-c2ccc(OCc3ccnc(P(C)(C)=O)n3)c(F)c2)cc1)c1cc(Cl)c(OCCCl)c(C#N)c1 [Compound 117]
IC50 [1]: 680 nM | AUC(0-inf) ([2]; po, 30 mg/kg, PO-30mpk): 304 µg·h/mL | Cmax ([2]; po, 30 mg/kg, PO-30mpk): 15700 ng/mL | half-life ([2]; po, 30 mg/kg, PO-30mpk): 12.1 h | Tmax ([2]; po, 30 mg/kg, PO-30mpk): 4 h

CC(C)(c1ccc(-c2ccc(OCc3ccnc(N4CC(P(C)(C)=O)C4)n3)cc2)cc1)c1cc(Cl)c(OCCCl)c(C#N)c1 [Compound 135]
IC50 [1]: 230 nM | AUC(0-inf) ([2]; po, 30 mg/kg, PO-30mpk): 207 µg·h/mL | Cmax ([2]; po, 30 mg/kg, PO-30mpk): 13600 ng/mL | half-life ([2]; po, 30 mg/kg, PO-30mpk): 5.6 h | Tmax ([2]; po, 30 mg/kg, PO-30mpk): 6 h

CC(C)(c1ccc(-c2ccc(OCc3ccnc(C4CN(S(C)(=O)=O)C4)n3)cc2)cc1)c1cc(Cl)c(OCCCl)c(C#N)c1 [Compound 145]
IC50 [1]: 600 nM | AUC(0-inf) ([2]; po, 30 mg/kg, PO-30mpk): 273 µg·h/mL | Cmax ([2]; po, 30 mg/kg, PO-30mpk): 15800 ng/mL | half-life ([2]; po, 30 mg/kg, PO-30mpk): 15.3 h | Tmax ([2]; po, 30 mg/kg, PO-30mpk): 4 h

CC(C)(c1ccc(-c2ccc(OCc3ccnc(N4CC(NS(C)(=O)=O)C4)n3)cc2)cc1)c1cc(Cl)c(OCCCl)c(C#N)c1 [Compound 161]
IC50 [1]: 450 nM | AUC(0-inf) ([2]; po, 30 mg/kg, PO-30mpk): 376 µg·h/mL | Cmax ([2]; po, 30 mg/kg, PO-30mpk): 11800 ng/mL | half-life ([2]; po, 30 mg/kg, PO-30mpk): 22.7 h | Tmax ([2]; po, 30 mg/kg, PO-30mpk): 4 h

CC(C)(c1ccc(-c2ccc(OCc3ccnc(N4CC(CS(C)(=O)=O)C4)n3)cc2)cc1)c1cc(Cl)c(OCCCl)c(C#N)c1 [Compound 175]
IC50 [1]: 490 nM | AUC(0-inf) ([2]; po, 30 mg/kg, PO-30mpk): 320 µg·h/mL | Cmax ([2]; po, 30 mg/kg, PO-30mpk): 9200 ng/mL | half-life ([2]; po, 30 mg/kg, PO-30mpk): 21.1 h | Tmax ([2]; po, 30 mg/kg, PO-30mpk): 4 h

CC(C)(c1ccc(-c2ccc(OCc3ccnc(N4CC(S(N)(=O)=O)C4)n3)cn2)cc1)c1cc(Cl)c(OCCCl)c(C#N)c1 [Compound 180]
IC50 [1]: 800 nM | AUC(0-inf) ([2]; po, 30 mg/kg, PO-30mpk): 309 µg·h/mL | Cmax ([2]; po, 30 mg/kg, PO-30mpk): 34600 ng/mL | half-life ([2]; po, 30 mg/kg, PO-30mpk): 5.17 h | Tmax ([2]; po, 30 mg/kg, PO-30mpk): 3 h
